From patent publication US10294202B2, “Pyrrolidinones as herbicides” (FMC Corporation, priority 2013, dated 2019)

Key:
giant foxtail = assay: Test A pre-/postemergence herbicide test; format: in vivo, Setaria faberii
Outline: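 Approximately 10 days after treatment in the greenhouse, plants were compared with untreated controls and given a 0–100 visual injury rating. Applications: preemergence directed soil spray; postemergence on 2–10 cm plants at the one- to two-leaf stage.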

rice = assay: Test B flooded paddy test; format: in vivo, Oryza sativa; details: 500 g ai/ha, Flood; scale of 0 to 100 where 0 is no effect and 100 is complete control
Outline: (§1)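 First, plants reach the 2-leaf stage; next, pots are flooded to 3 cm and compound is delivered into the water; finally, after 13 to 15 greenhouse days at constant depth, injury is graded visually from 0 to 100 against controls.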

sedge, umbrella = assay: Test B flooded paddy test; format: in vivo, Cyperus difformis; details: 500 g ai/ha, Flood; scale of 0 to 100 where 0 is no effect and 100 is complete control
Outline: as §1

ducksalad = assay: Test B flooded paddy test; format: in vivo, Heteranthera limosa; details: 500 g ai/ha, Flood; scale of 0 to 100 where 0 is no effect and 100 is complete control
Outline: as §1

barnyardgrass = assay: Test B flooded paddy test; format: in vivo, Echinochloa crus-galli; details: 500 g ai/ha, Flood; scale of 0 to 100 where 0 is no effect and 100 is complete control
Outline: as §1

blackgrass = assay: Test C pre-/postemergence herbicide test; format: in vivo, Alopecurus myosuroides
Outline: (§2)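 Plants grown and held in a greenhouse for 13 to 15 days post-spray, then rated 0–100 by visual comparison with controls. Pre treatments targeted seeds in loam and sand; post treatments targeted 1- to 4-leaf plants in peat-based potting medium.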

nutsedge, yellow = assay: Test C pre-/postemergence herbicide test; format: in vivo, Cyperus esculentus
Outline: as §2

pigweed = assay: Test C pre-/postemergence herbicide test; format: in vivo, Amaranthus retroflexus
Outline: as §2

ragweed = assay: Test C pre-/postemergence herbicide test; format: in vivo, Ambrosia elatior
Outline: as §2

oilseed rape = assay: Test C pre-/postemergence herbicide test; format: in vivo, Brassica napus
Outline: as §2

waterhemp = assay: Test C pre-/postemergence herbicide test; format: in vivo, Amaranthus rudis
Outline: as §2

oat, wild = assay: Test C pre-/postemergence herbicide test; format: in vivo, Avena fatua; details: Postemergence
Outline: as §2

velvetleaf = assay: Test C pre-/postemergence herbicide test; format: in vivo, Abutilon theophrasti
Outline: as §2

[1] = Postemergence, 125 g ai/ha, visual rating on 0 to 100 scale (0 no effect, 100 complete control), approx. 10 days
[2] = Postemergence, 500 g ai/ha, 0 to 100 scale (0 no effect, 100 complete control)
[3] = Preemergence, 125 g ai/ha, 0 to 100 scale where 0 is no effect and 100 is complete control
[4] = Preemergence, 500 g ai/ha, visual rating on 0 to 100 scale (0 no effect, 100 complete control)
[5] = Postemergence, 31 g ai/ha, scale 0 to 100 (0 no effect, 100 complete control)
[6] = Postemergence, 62 g ai/ha, scale 0 (no effect) to 100 (complete control)
[7] = Postemergence, 125 g ai/ha, scale 0 to 100 (0 no effect, 100 complete control)
[8] = Postemergence, 250 g ai/ha, scale 0 to 100 (0 no effect, 100 complete control)
[9] = Preemergence, 31 g ai/ha, scale 0 to 100, 0 is no effect and 100 is complete control
[10] = Preemergence, 62 g ai/ha, scale 0 to 100 (0 no effect, 100 complete control)
[11] = Preemergence, 125 g ai/ha, scale 0 to 100
[12] = 31 g ai/ha, scale 0 to 100 (0 no effect, 100 complete control)
[13] = 62 g ai/ha, scale 0 (no effect) to 100 (complete control)
[14] = 125 g ai/ha, scale 0 to 100 (0 no effect, 100 complete control)
[15] = 250 g ai/ha, scale 0 to 100 (0 no effect, 100 complete control)

O=C1NCC(c2cccc(OC(F)F)c2)C1C(=O)Nc1cccc(F)c1F (centres unmarked) [Compound 324]
85: Plant response rating, Oilseed Rape (oilseed rape; [11])
100: Plant response rating, Ducksalad (ducksalad) | Blackgrass plant response rating (blackgrass; [9])
40: Plant response rating, Ragweed (ragweed; [8]) | Plant response rating, Waterhemp (waterhemp; [8]) | Plant response rating, Velvetleaf (velvetleaf; [11])
5: Plant response rating, Ragweed (ragweed; [5]) | Plant response rating, Oat, Wild (oat, wild; [15])
25: Plant response rating, Ragweed (ragweed; [7])
55: Plant response rating, Pigweed (pigweed; [8]) | Pigweed plant response rating (pigweed; [9]) | Plant response rating, Velvetleaf (velvetleaf; [6]) | Plant response rating, Velvetleaf (velvetleaf; [8])
75: Pigweed plant response rating (pigweed; [10]) | Plant response rating, Ragweed (ragweed; [11])
50: Plant response rating, Velvetleaf (velvetleaf; [7])
35: Plant response rating (scale of 0 to 100), Nutsedge, Yellow (nutsedge, yellow; Preemergence, 250 g ai/ha) | Plant response rating, Pigweed (pigweed; [6]) | Velvetleaf plant response rating (velvetleaf; [10])
10: Plant response rating, Waterhemp (waterhemp; [6])
80: Plant response rating, Barnyardgrass (barnyardgrass) | Plant response rating, Pigweed (pigweed; [11]) | Plant response rating, Waterhemp (waterhemp; [11])
30: Plant response rating, Rice (rice) | Blackgrass plant response rating (blackgrass; [10])
90: Plant response rating, Foxtail, Giant (giant foxtail; [1]) | Plant response rating, Foxtail, Giant (giant foxtail; [2]) | Plant response rating, Foxtail, Giant (giant foxtail; [3]) | Foxtail, Giant plant response rating (giant foxtail; [4]) | Plant response rating (scale of 0 to 100), Oilseed Rape (oilseed rape; Preemergence, 250 g ai/ha)
95: Plant response rating (scale of 0 to 100), Blackgrass (blackgrass; Preemergence, 250 g ai/ha)
70: Plant response rating, Blackgrass (blackgrass; [11]) | Oilseed Rape plant response rating (oilseed rape; [10]) | Waterhemp plant response rating (waterhemp; [10])
20: Plant response rating, Ragweed (ragweed; [6]) | Plant response rating, Waterhemp (waterhemp; [7])
60: Ragweed plant response rating (ragweed; [10])
0: Plant response rating, Sedge, Umbrella (sedge, umbrella) | Plant response rating, Blackgrass (blackgrass; [5]) | Plant response rating, Blackgrass (blackgrass; [6]) | Plant response rating, Blackgrass (blackgrass; [7]) | Plant response rating, Blackgrass (blackgrass; [8]) | Plant response rating, Nutsedge, Yellow (nutsedge, yellow; [5]) | Plant response rating, Nutsedge, Yellow (nutsedge, yellow; [6]) | Plant response rating, Nutsedge, Yellow (nutsedge, yellow; [7]) | Plant response rating, Nutsedge, Yellow (nutsedge, yellow; [8]) | Nutsedge, Yellow plant response rating (nutsedge, yellow; [9]) | Nutsedge, Yellow plant response rating (nutsedge, yellow; [10]) | Plant response rating, Nutsedge, Yellow (nutsedge, yellow; [11]) | Plant response rating, Pigweed (pigweed; [5]) | Plant response rating, Oilseed Rape (oilseed rape; [5]) | Plant response rating, Oilseed Rape (oilseed rape; [6]) | Plant response rating, Oilseed Rape (oilseed rape; [7]) | Plant response rating, Oilseed Rape (oilseed rape; [8]) | Oilseed Rape plant response rating (oilseed rape; [9]) | Plant response rating, Waterhemp (waterhemp; [5]) | Plant response rating, Oat, Wild (oat, wild; [12]) | Plant response rating, Oat, Wild (oat, wild; [13]) | Plant response rating, Oat, Wild (oat, wild; [14]) | Plant response rating, Velvetleaf (velvetleaf; [5])
65: Plant response rating, Pigweed (pigweed; [7])

O=C1NCC(c2cccc(OC(F)F)c2)C1C(=O)Nc1ccc(F)c(F)c1F (centres unmarked) [Compound 325]
10: Plant response rating, Ragweed (ragweed; [5]) | Plant response rating, Ragweed (ragweed; [6])
40: Plant response rating, Sedge, Umbrella (sedge, umbrella) | Plant response rating, Pigweed (pigweed; [5]) | Plant response rating, Velvetleaf (velvetleaf; [8])
100: Plant response rating, Ducksalad (ducksalad)
5: Blackgrass plant response rating (blackgrass; [9]) | Plant response rating, Oat, Wild (oat, wild; [14])
20: Plant response rating, Rice (rice) | Plant response rating, Velvetleaf (velvetleaf; [7])
60: Ragweed plant response rating (ragweed; [10]) | Plant response rating, Oilseed Rape (oilseed rape; [8])
0: Plant response rating, Blackgrass (blackgrass; [5]) | Plant response rating, Blackgrass (blackgrass; [6]) | Plant response rating, Blackgrass (blackgrass; [7]) | Plant response rating, Nutsedge, Yellow (nutsedge, yellow; [5]) | Plant response rating, Nutsedge, Yellow (nutsedge, yellow; [6]) | Plant response rating, Nutsedge, Yellow (nutsedge, yellow; [7]) | Plant response rating, Nutsedge, Yellow (nutsedge, yellow; [8]) | Nutsedge, Yellow plant response rating (nutsedge, yellow; [9]) | Nutsedge, Yellow plant response rating (nutsedge, yellow; [10]) | Plant response rating, Nutsedge, Yellow (nutsedge, yellow; [11]) | Plant response rating (scale of 0 to 100), Nutsedge, Yellow (nutsedge, yellow; Preemergence, 250 g ai/ha) | Plant response rating, Oilseed Rape (oilseed rape; [5]) | Plant response rating, Oilseed Rape (oilseed rape; [6]) | Oilseed Rape plant response rating (oilseed rape; [9]) | Plant response rating, Waterhemp (waterhemp; [5]) | Plant response rating, Waterhemp (waterhemp; [6]) | Plant response rating, Oat, Wild (oat, wild; [12]) | Plant response rating, Oat, Wild (oat, wild; [13]) | Plant response rating, Velvetleaf (velvetleaf; [5])
25: Plant response rating, Ragweed (ragweed; [7]) | Plant response rating, Waterhemp (waterhemp; [7])
85: Plant response rating (scale of 0 to 100), Blackgrass (blackgrass; Preemergence, 250 g ai/ha) | Plant response rating, Oilseed Rape (oilseed rape; [11])
35: Plant response rating, Blackgrass (blackgrass; [8]) | Plant response rating, Ragweed (ragweed; [8]) | Plant response rating, Waterhemp (waterhemp; [8]) | Velvetleaf plant response rating (velvetleaf; [10])
15: Plant response rating, Oat, Wild (oat, wild; [15]) | Plant response rating, Velvetleaf (velvetleaf; [6])
80: Plant response rating, Ragweed (ragweed; [11]) | Plant response rating, Waterhemp (waterhemp; [11])
70: Plant response rating, Barnyardgrass (barnyardgrass) | Plant response rating, Blackgrass (blackgrass; [11])
55: Plant response rating, Pigweed (pigweed; [6]) | Plant response rating, Velvetleaf (velvetleaf; [11])
90: Plant response rating, Foxtail, Giant (giant foxtail; [1]) | Plant response rating, Foxtail, Giant (giant foxtail; [2]) | Plant response rating, Foxtail, Giant (giant foxtail; [3]) | Foxtail, Giant plant response rating (giant foxtail; [4]) | Plant response rating (scale of 0 to 100), Oilseed Rape (oilseed rape; Preemergence, 250 g ai/ha)
75: Plant response rating, Pigweed (pigweed; [11]) | Waterhemp plant response rating (waterhemp; [10])
50: Blackgrass plant response rating (blackgrass; [10]) | Plant response rating, Pigweed (pigweed; [7]) | Plant response rating, Oilseed Rape (oilseed rape; [7])
65: Plant response rating, Pigweed (pigweed; [8]) | Pigweed plant response rating (pigweed; [9]) | Pigweed plant response rating (pigweed; [10]) | Oilseed Rape plant response rating (oilseed rape; [10])
